The results in this text go back to patent US11883407B2, “Medicament for the treatment of chronic cough” (Shionogi & Co., Ltd., priority 2018, dated 2024).

Structures are written as SMILES.

Data set [1] in a line: Phase I repeat dose study (safety, tolerability). The format is in vivo, human.
Data set [2] in a line: clinical. The following applies: human, plasma, oral.
Data set [3] is described as follows: Phase I single dose and food effect study (safety, tolerability).
For data set [4], the target named is T1, human P2X2/3 receptor (Homo sapiens, UniProt P56373+Q9UBL9).
T1 sequence (Q9UBL9 1-471): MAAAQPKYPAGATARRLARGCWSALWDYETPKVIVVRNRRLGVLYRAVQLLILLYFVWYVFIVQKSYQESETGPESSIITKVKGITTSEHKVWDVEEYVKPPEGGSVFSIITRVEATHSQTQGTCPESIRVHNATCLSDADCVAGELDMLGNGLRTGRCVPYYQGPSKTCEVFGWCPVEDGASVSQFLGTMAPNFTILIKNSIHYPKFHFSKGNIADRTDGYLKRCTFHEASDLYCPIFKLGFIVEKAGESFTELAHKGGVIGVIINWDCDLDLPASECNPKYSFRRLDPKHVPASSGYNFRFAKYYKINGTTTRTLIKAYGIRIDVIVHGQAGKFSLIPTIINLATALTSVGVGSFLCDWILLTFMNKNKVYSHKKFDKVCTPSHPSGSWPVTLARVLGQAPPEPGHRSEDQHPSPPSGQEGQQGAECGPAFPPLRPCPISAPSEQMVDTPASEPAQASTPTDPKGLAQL
T1 sequence (P56373 1-397): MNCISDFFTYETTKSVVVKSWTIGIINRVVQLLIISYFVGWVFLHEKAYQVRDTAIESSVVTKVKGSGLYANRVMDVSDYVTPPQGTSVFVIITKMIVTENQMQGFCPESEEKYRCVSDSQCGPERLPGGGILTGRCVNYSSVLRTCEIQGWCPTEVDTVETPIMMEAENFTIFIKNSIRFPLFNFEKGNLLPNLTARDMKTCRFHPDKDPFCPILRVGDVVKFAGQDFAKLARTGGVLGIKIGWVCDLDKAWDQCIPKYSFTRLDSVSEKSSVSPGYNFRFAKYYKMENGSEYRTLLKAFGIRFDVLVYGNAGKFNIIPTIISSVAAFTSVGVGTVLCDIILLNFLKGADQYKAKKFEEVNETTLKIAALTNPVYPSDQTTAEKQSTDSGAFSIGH
Put plainly: Evaluation of human P2X2/3 receptor inhibitory activity (Fluo-3 fluorescence, C6BU-1 cells, α,β-methylene ATP 6 μM).

Turning to `C[C@@H](Cn1c(=O)[nH]/c(=N\c2ccc(Oc3ccccn3)cc2)n(Cc2ccc(Cl)cc2)c1=O)C(=O)O` [compound represented by Formula (I), (2S)-3-(3-[(4-Chlorophenyl)methyl]-2,6-dioxo-4-{[4-(pyridin-2-yloxy)phenyl]amino}-3,6-dihydro-1,3,5-triazin-1(2H)-yl)-2-methyl-propanoic acid], the “dysgeusia or any taste-related disorder” value in data set [1] (150 and 300 mg once daily for 2 weeks) was “no dysgeusia or any taste-related disorder was observed”. Also, the “deaths, serious adverse events, adverse events leading to discontinuation of administration” value in data set [1] (any administration group, healthy adult males) is listed as “no deaths, serious adverse events or adverse events leading to discontinuation of administration”; in data set [3] (Part A and Part B, healthy adult males), “no deaths, serious adverse events, or adverse events leading to discontinuation of administration”. The concentration at 24 h in data set [2] (3 mg) was determined as 15.2 ng/mL; in data set [2] (10 mg) it was 50.7 ng/mL; in data set [2] (30 mg), 134 ng/mL; in data set [2] (100 mg), 424 ng/mL; in data set [2] (300 mg) it was 1840 ng/mL; in data set [2] (450 mg), 2680 ng/mL. The “taste-related adverse events or side effects” value in data set [3] (all Phase I studies conducted (single dose/food effect and repeat dose)) is on record as “No taste-related adverse events or side effects were observed”. Also, the “dysgeusia or any taste-related disorder as adverse event” value in data set [3] (single dose 3, 10, 30, 100, 300 and 450 mg groups) is “no dysgeusia or any taste-related disorder was observed”. In data set [4], this compound displayed a half-maximal inhibitory concentration (IC50) of 1100 nM.
